Where a SMILES comes first, the peptide text is derived from it. [ ]: non-standard residue; d: D form. The star is where a group is joined. Bip(2'-Et,4'-O(CH2)4NH2) = CCc1cc(OCCCCN)ccc1-c1ccc(C[C@H](N)C(=O)O)cc1; Malonyl(2,2-Me2,histaminyl) = CC(C)(C(=O)NCCc1cnc[nH]1)C(=O)*; Nva(5-(3,5-Me2Ph)) = Cc1cc(C)cc(CCC[C@H](N)C(=O)O)c1; Ala(1H-tetrazol-5-yl) = N[C@@H](Cc1nnn[nH]1)C(=O)O; αMePhe(2-F) = C[C@](N)(Cc1ccccc1F)C(=O)O; NHPh = c1ccc(N*)cc1
Legend:
[1] = target: human glucagon-like peptide 2 receptor (GLP2R) (Homo sapiens (Human), UniProt O95838); assay: CRE-luciferase reporter bioassay, HEK293/Myc-hGLP2R/Cre-Luc cell line; format: cell-based; details: HEK293/Myc-hGLP2R/Cre-Luc
human glucagon-like peptide 2 receptor (GLP2R), sequence (O95838 whole entry): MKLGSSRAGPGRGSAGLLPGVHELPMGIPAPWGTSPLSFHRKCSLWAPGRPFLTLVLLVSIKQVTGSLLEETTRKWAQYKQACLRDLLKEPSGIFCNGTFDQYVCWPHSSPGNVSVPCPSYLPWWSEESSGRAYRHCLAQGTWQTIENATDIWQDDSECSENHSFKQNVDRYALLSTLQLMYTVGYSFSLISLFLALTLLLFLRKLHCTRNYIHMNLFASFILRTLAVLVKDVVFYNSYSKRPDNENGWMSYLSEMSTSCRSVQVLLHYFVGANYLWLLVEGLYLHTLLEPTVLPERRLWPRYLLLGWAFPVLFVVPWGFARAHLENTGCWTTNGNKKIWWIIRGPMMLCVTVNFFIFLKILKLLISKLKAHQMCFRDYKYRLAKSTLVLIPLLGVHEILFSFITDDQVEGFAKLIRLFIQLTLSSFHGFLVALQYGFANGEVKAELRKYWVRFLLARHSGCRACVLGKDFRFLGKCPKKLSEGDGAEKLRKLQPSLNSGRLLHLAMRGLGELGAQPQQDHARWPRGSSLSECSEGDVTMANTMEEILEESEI
Description: Cells were incubated overnight at 37° C. in 5% CO2. […] Plates were incubated for 5.5 h at 37° C. in 5% CO2. For end-point measurement, 100 μL/well of One-Glo reagent (Promega, #E6051) was added and plates were kept at room temperature for 5-10 minutes. Luciferase activity was measured on Envision Multilabel Plate Reader (Perkin Elmer) in Luminescent mode. The relative light units (RLU) values were obtained and the results were analyzed using nonlinear regression with GraphPad Prism software (GraphPad).

[2] = Plasma stability of payloads and linker-payloads, human plasma; format: in vitro ADME; details: for half-life at 2 µM: human, pooled plasma, pH 7.4, payload properties table, species not given, read-out: Plasma stability t½ (converted)
Description: The plasma stability of payloads and linker payloads of the disclosure were measured. For the assay, pooled frozen plasma (human, mouse or monkey) was thawed in cold water or a 37° C. water bath prior to experiment. Plasma was centrifuged at 4000 rpm for 5 min if any clots were observed, they were subsequently removed. If required, the pH was adjusted to 7.4±0.1. For the preparation of compounds and positive controls, a 1 mM intermediate solution was prepared by diluting 10 μL of their stock solution with 90 μL DMSO; a 1 mM intermediate solution of the positive control (Propantheline) was prepared by diluting 10 μL of its stock solution with 90 μL ultrapure water. […] 98 μL of plasma was spiked with 2 μL of dosing solution (100 μM) to achieve the final concentration of 2 μM in duplicate. Samples were then incubated at 37° C. in a water bath. […] At each time point, 400 μL of stop solution (200 ng/mL tolbutamide plus 200 ng/mL labetalol in 50% ACN/MeOH) was added to precipitate protein and mixed thoroughly. Sample plates were then centrifuged at 4,000 rpm for 10 min. An aliquot of supernatant (50 μL) was transferred from each well and mixed with 100 μL ultra-pure water. The samples were then shaken at 800 rpm for approximately 10 min before submitting for LC-MS/MS analysis.

human GLP1R = human GLP1R (Homo sapiens (Human), UniProt P43220); assay: cAMP responsive luciferase reporter assay, HEK293/CRE-Luc/hGLP1R cells; format: cell-based; details: for HEK293/CRE-LUC/hGLP1R S/N: highest RLU / RLU of untreated wells; for HEK293/CRE-LUC/hGLP1R Relative Potency (% P8 EC50) / HEK293/CRE-LUC/hGLP1R Relative Signal:Noise (% P8): relative to P8 of the same experiment
human GLP1R, sequence (P43220 24-463): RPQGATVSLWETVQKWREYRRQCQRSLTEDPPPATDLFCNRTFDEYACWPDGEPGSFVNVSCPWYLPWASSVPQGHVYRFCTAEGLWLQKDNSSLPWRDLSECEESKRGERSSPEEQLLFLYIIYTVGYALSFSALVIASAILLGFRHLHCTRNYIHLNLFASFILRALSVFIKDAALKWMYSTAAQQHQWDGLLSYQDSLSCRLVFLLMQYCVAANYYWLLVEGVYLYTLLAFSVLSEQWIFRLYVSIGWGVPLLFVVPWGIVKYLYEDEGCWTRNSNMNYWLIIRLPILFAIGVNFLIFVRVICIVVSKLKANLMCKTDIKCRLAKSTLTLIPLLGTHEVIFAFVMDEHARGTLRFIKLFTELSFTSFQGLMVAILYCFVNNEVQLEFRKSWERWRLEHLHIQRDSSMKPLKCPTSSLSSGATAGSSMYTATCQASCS
Excerpt: (§1) To test the activity of GLP1R agonist payloads, GLP1R agonist linker-payloads (LPs), and anti-GLP1R antibody tethered drug conjugates (ATDCs) of the disclosure, a cell-based cAMP responsive luciferase reporter assay was developed. To generate the assay cell line, the firefly luciferase gene was placed under the control of a cAMP response element (CRE) located upstream of a minimal promoter and transfected into HEK293 cells and referred to herein as HEK293/CRE-Luc cells.
(§2) Three-fold serial dilutions of free payloads or LPs were prepared in 100% DMSO, transferred to fresh assay media, and added to the cells at a final constant DMSO concentration of 0.2%. The last well in the plate served as a blank control containing only the assay media and 0.2% DMSO (untreated well) and was plotted as a continuation of the 3-fold serial dilution. Four to six hours later, luciferase activity was determined after the addition of One-Glo™ reagent (Promega, Cat #E6130) to each well. Relative light units (RLUs) were measured on an Envision luminometer (PerkinElmer) and EC50 values were determined using a four-parameter logistic equation over a 12-point dose response curve (GraphPad Prism). The signal to noise (S/N) was determined by taking the ratio of the highest RLU on the dose response curve to the RLU in the untreated wells.
GLP1R agonist linker payloads were conjugated to anti-hGLP1R antibodies via N-terminal heavy or light chain Q tags. Several resulting anti-GLP1R antibody tethered drug conjugates (ATDCs) were tested for activity in the HEK293/CRE-Luc/hGLP1R reporter assay as described above for the free GLP1R payload and linker-payload agonists.

HEK293/CRE-Luc cells = assay: cAMP responsive luciferase reporter assay, HEK293/CRE-Luc cells (no hGLP1R expression); format: cell-based, human
Excerpt: as §1, §2

SMILES	CRE-dependent reporter activity [1]	Human plasma stability assay T½ ([2]; tested for 1 day (A)) [h]	half-life at 2 µM [2] [min]	HEK293/CRE-LUC/hGLP1R S/N (human GLP1R)	HEK293/CRE-LUC/hGLP1R Relative Potency (% P8 EC50) (human GLP1R) [%]	HEK293/CRE-LUC/hGLP1R Relative Signal:Noise (% P8) (human GLP1R) [%]	EC50 (HEK293/CRE-Luc cells) [nM]	HEK293/CRE-LUC S/N (HEK293/CRE-Luc cells)	Human plasma stability assay T½ ([2]; tested for 3 days (C)) [h]	Human plasma stability assay T½ ([2]; tested for 2 hrs (B)) [h]
CC[C@H](C)[C@H](NC(=O)[C@H](Cc1ccccc1)NC(=O)[C@H](CC(=O)O)NC(=O)[C@H](CCCNC(=N)N)NC(=O)[C@H](C)NC(=O)[C@H](C)NC(=O)[C@H](CC(C)C)NC(=O)[C@H](CC(N)=O)NC(=O)[C@H](CC(=O)O)NC(=O)[C@H](CC(C)C)NC(=O)[C@@H](NC(=O)[C@@H](NC(=O)[C@H](CC(N)=O)NC(=O)[C@H](CCSC)NC(=O)[C@H](CCC(=O)O)NC(=O)[C@H](CC(=O)O)NC(=O)[C@H](CO)NC(=O)[C@H](Cc1ccccc1)NC(=O)[C@H](CO)NC(=O)CNC(=O)[C@H](CC(=O)O)NC(=O)[C@H](C)NC(=O)[C@@H](N)Cc1c[nH]cn1)[C@@H](C)O)[C@@H](C)CC)C(=O)N[C@@H](CC(N)=O)C(=O)N[C@@H](Cc1c[nH]c2ccccc12)C(=O)N[C@@H](CC(C)C)C(=O)N[C@H](C(=O)N[C@@H](CCC(N)=O)C(=O)N[C@H](C(=O)N[C@@H](CCCCN)C(=O)N[C@H](C(=O)N[C@H](C(=O)N[C@@H](CC(=O)O)C(=O)O)[C@@H](C)O)[C@@H](C)CC)[C@@H](C)O)[C@@H](C)CC [GLP2, reference compound]	activated individual cell lines as expected									
CCc1cc(OCCCCN)ccc1-c1ccc(C[C@H](NC(=O)[C@H](CC(=O)O)NC(=O)[C@H](CO)NC(=O)[C@@H](NC(=O)[C@](C)(Cc2ccccc2F)NC(=O)[C@@H](NC(=O)CNC(=O)[C@H](Cc2nn[nH]n2)NC(=O)[C@H](C)NC(=O)[C@H](Cc2c[nH]cn2)NC(=O)[C@@H](N)CCC(N)=O)[C@@H](C)O)[C@@H](C)O)C(=O)N[C@@H](CCCc2cc(C)cc(C)c2)C(N)=O)cc1 [P13] (H-QHA[Ala(1H-tetrazol-5-yl)]GT[αMePhe(2-F)]TSD[Bip(2'-Et,4'-O(CH2)4NH2)][Nva(5-(3,5-Me2Ph))]-NH2)		16.9	1010	69.5	1.5	105.6	> 200	1.2		
CCc1cc(OCCCCN)ccc1-c1ccc(C[C@H](NC(=O)[C@H](CC(=O)O)NC(=O)[C@H](CO)NC(=O)[C@@H](NC(=O)[C@](C)(Cc2ccccc2F)NC(=O)[C@@H](NC(=O)CNC(=O)[C@H](CCC(N)=O)NC(=O)C(C)(C)C(=O)NCCc2cnc[nH]2)[C@@H](C)O)[C@@H](C)O)C(=O)N[C@@H](CCCc2cc(C)cc(C)c2)C(N)=O)cc1 [P21]			> 3470	58.8	0.7	89.5	> 200	1.3	>173.4	
CCc1cc(OCCCCN)ccc1-c1ccc(C[C@H](NC(=O)[C@H](CC(=O)O)NC(=O)[C@H](CO)NC(=O)[C@@H](NC(=O)[C@](C)(Cc2ccccc2F)NC(=O)[C@@H](NC(=O)CNC(=O)[C@H](Cc2nn[nH]n2)NC(=O)C(C)(C)C(=O)NCCc2cnc[nH]2)[C@@H](C)O)[C@@H](C)O)C(=O)N[C@@H](CCCc2cc(C)cc(C)c2)C(=O)Nc2ccccc2)cc1 [P23] ({Malonyl(2,2-Me2,histaminyl)}-[Ala(1H-tetrazol-5-yl)]GT[αMePhe(2-F)]TSD[Bip(2'-Et,4'-O(CH2)4NH2)][Nva(5-(3,5-Me2Ph))]-NHPh)				57.1	103.0	86.9	> 200	1.6		10.74
